These results are taken from paper PMC6593233 (Frontiers in Pharmacology, 2019).

Entries after “also recorded” stand apart in the source; their conditions may differ. Read-outs that look alike come from different tables or passages of the source.

The target of data set [1] is T1, hKCa2.2 (Homo sapiens, UniProt Q9H2S1). The experiment in a line: Manual whole-cell patch clamp, IKCa in HEK293 cells transiently transfected with hKCa2.2. Format: cell-based. Here is the method:
These stock solutions were stored at −20°C and aliquots were solubilized at the desired concentration on the day of the experiment.
(§1) The KCa2.2 manual patch-clamp experiments and KCa2.2/KCa2.3 QPatch experiments were conducted using symmetrical K^+ solutions. The extracellular solution contained (in mM) 0.1 CaCl2, 3 MgCl2, 154 KCl, 10 HEPES, and 10 glucose (pH = 7.4 and 285–295 mOsm). The intracellular solution contained (in mM) 8.106 CaCl2 (final free Ca^2+ concentration of 400 nM), 1.167 MgCl2, 10 EGTA, 108 KCl, 10 HEPES, 31.25/10 KOH/EGTA, and 15 KOH (pH = 7.2).
The cells were cultured in Dulbecco’s modified Eagle’s medium (DMEM1965, Thermo Fisher, USA) supplemented with 26.2 mM NaHCO3, 25 mM HEPES, 10 ml L^-1 Glutamax (Gibco, USA), 10% fetal bovine serum (Biowest, France), and 100 U ml^-1 of penicillin/streptomycin (Sigma, Germany); 1 to 2 days after the transfection, patch clamp experiments were conducted. […]
Manual patch clamp recordings were made using a HEKA EPC9 amplifier and the PatchMaster software (HEKA Elektronik, Germany) at room temperature using the whole cell configuration. Fluorescence was used to detect successfully transfected cells. […]
(§2) For IKCa and IKr, the mean of the last three data points was used for further analysis. […] Individual IC50 values were calculated for each experiment and then used to obtain the final mean ± S.E.M.
In general terms: In patch-clamp work, channel activity is measured electrically.

In data set [2] the target is T1, hKCa2.2. The experiment in a line: Automated patch clamp (QPatch), IKCa in HEK293 cells stably expressing hKCa2.2. The format is cell-based. The note with it: hKCa2.2, automated patch clamp, present study, n = 8. Here is the method:
as §1
(§3) Bicuculline methiodide was used as a positive control for KCa2 specific current at the beginning and the end of the experiment.
(§4) The cells were cultured in Dulbecco’s modified Eagle’s medium (DMEM1965, Thermo Fisher, USA) supplemented with 26.2 mM NaHCO3, 25 mM HEPES, 10 ml L^-1 Glutamax (Gibco, USA), 10% fetal bovine serum (Biowest, France), 100 U ml^-1 of penicillin/streptomycin (Sigma, Germany), and 100 µg/ml Geneticin (Gibco, UK) […]
as §2

Data set [3] concerns the target T2, hKCa2.3 (Homo sapiens, UniProt Q9UGI6). The experiment in a line: Automated patch clamp (QPatch), IKCa in HEK293 cells stably expressing hKCa2.3. The format is cell-based. On the procedure: as §1, §3, §4, §2
The target of data set [4] is T3, hKv11.1 (Homo sapiens, UniProt Q12809).
T3 construct: expressed in transfected cells
The experiment in a line: Automated patch clamp (QPatch), IKr in CHO-K1 cells stably expressing Kv11.1. Format: cell-based. The conditions noted are these: Kv11.1 current.
Description: For the Kv11.1 experiments conducted on the automated QPatch machine, the extracellular solution contained (in mM) 145 NaCl, 4 KCl, 2 CaCl2, 1 MgCl2, 10 HEPES, and 10 glucose (pH = 7.4 and 305 mOsm adjusted with sucrose). The intracellular solution contained (in mM) 120 KCl, 31.25/10 KOH/EGTA, 5.4 CaCl2, 1.75 MgCl2, 4 mM Na2ATP, and 10 HEPES (pH = 7.2 and 285–296 mOsm adjusted with sucrose). Recordings were made before and after application of drug.
The cells were cultured in DMEM F12 (Sigma, Germany), 10% fetal bovine serum (Biowest, France) and 100 U ml^-1 of penicillin/streptomycin (Sigma, Germany), 100 µg/ml Geneticin (Gibco, UK), 100 µg/ml hygromycin (Sigma-Aldrich), and 2 mM glutamine (Gibco, UK).
On the day of experiment, when cells reached about 70–90% confluency, they were detached with Detachin (Genlantis, USA) and resuspended in serum free medium (C5467 SAFC, Switzerland) containing 25 mM HEPES, 0.04 mg/ml soy bean trypsin inhibitor (T6522 Sigma-Aldrich), and 100 U/ml penicillin/streptomycin and were kept in suspension for QPatch experiments.
Automated patch-clamp whole-cell recordings were performed using a QPatch 16 HT system and disposable single-hole QPlates (Sophion, Denmark). […]

The subject of data set [5] is isolated guinea pig hearts. The experiment in a line: Isolated Langendorff-perfused guinea pig hearts: AERP, QTcB, heart rate. Here is the method:
AP14145 was supplied by Acesion Pharma. Dofetilide was purchased at Sigma-Aldrich (St. Louis, USA) for the Langendorff and Hello Bio (Bristol, UK) for the closed chest in vivo experiments. Ondansetron was purchased at Sigma-Aldrich (St. Louis, USA). For the Langendorff perfused heart experiments the compounds were dissolved in DMSO to make stock solutions and diluted to the final concentration in the Krebs-Henseleit buffer during the experiments. The final concentration of DMSO never exceeded 0.3% in the buffer. For the closed chest experiments, the compounds were first dissolved in PEG-400 and then diluted to a 50% saline and 50% PEG-400 solution. The Langendorff perfused heart experiments were performed using a total of 24 female Dunkin Hartley guinea pigs (350–450 g, Charles River, Saint-Germain-Nuelle, France). Guinea pigs were anesthetized with an i.p. injection of pentobarbital 200 mg/ml, lidocaine hydrochloride 20 mg/ml, (Glostrup Apotek, Denmark), dose 0.150 ml/100 g body weight. A tracheotomy was performed and the guinea pigs were ventilated with 60 strokes*5 ml/min using a rodent ventilator (7025 Rodent ventilator, Ugo Basile, Italy). The hearts were excised and cannulated in situ through a small puncture of the aorta and connected to the Langendorff retrograde perfusion setup (Hugo Sachs Elektronik, Harvard Apparatus GmbH, March, Germany). The hearts were retrogradely perfused at a constant perfusion pressure of 60 mmHg at 37°C, pH 7.4, Krebs-Henseleit buffer (in mM: […] The aortic perfusion pressure was determined with an ISOTEC transducer (Hugo Sachs Elektronik) and the coronary flow was measured with an ultrasonic flow meter (Transonic Systems Inc., USA). Both were connected to an amplifier (Hugo Sachs Elektronik). The electrical activity was measured using volume conducted ECGs and by placing epicardial monophasic action potential electrodes (MAPs) on the atria and ventricles. The hearts were immersed into a temperature-controlled bath containing pH 7.4 Krebs-Henseleit buffer. Perfusion pressure, coronary flow, ECG, and MAP analogue signals sampled at a frequency of 2k/s and converted by a 16/30 data acquisition system from PowerLab systems (ADInstruments, Oxford, UK) and monitored using LabChart 7 software (ADInstruments). A bipolar pacing electrode was placed on the right atrial appendage for epicardial pacing stimulation using square pulses of 2 ms durations at three times diastolic threshold at 300 beats per minute. During the entire experiment, the ECG was monitored and monophasic action potential electrodes were placed on each chamber of the heart. The hearts were then left to stabilize for 20 min at intrinsic heart rhythm. The right AERP was measured by 10 regular stimuli (S1) followed by a premature extra stimulus (S2) applied with 1-ms increments. The AERP was defined as the longest S1–S2 interval failing to elicit an action potential. […] After a period of stabilization, every Langendorff experiment consisted of four 20-min episodes ( Figure 1 ). […] During the entire experiment, the AERP was measured every 5 min and the ECG was continuously monitored.

A further data set concerns guinea pigs. The experiment in a line: In vivo closed chest atrially paced guinea pig model: AERP, QTcB, heart rate. On the procedure:
AP14145 was supplied by Acesion Pharma. […] For the Langendorff perfused heart experiments the compounds were dissolved in DMSO to make stock solutions and diluted to the final concentration in the Krebs-Henseleit buffer during the experiments. The final concentration of DMSO never exceeded 0.3% in the buffer. For the closed chest experiments, the compounds were first dissolved in PEG-400 and then diluted to a 50% saline and 50% PEG-400 solution. A total of 18 female guinea pigs (Dunkin Hartley HsdPoc : GH, Charles River) weighing 350-450 g were anesthetized with 5% isoflurane/oxygen in a sedation box. The guinea pigs were placed under artificial ventilation through a cannula placed in the trachea and anesthesia was reduced to 2.5% isoflurane/oxygen throughout the experiment. The temperature of the guinea pigs was monitored with a rectal thermometer and kept stable during the experiment using a heating lamp. Needle ECG electrodes were placed in each limb for ECG recordings (ADInstruments, UK). An electrophysiological catheter with eight electrodes (EPR-802) (Millar Inc., US) was placed in the right atrium via the right jugular vein. The two electrodes proximal to the tip of the catheter ([[…] et al., 2006]; [[…] et al., 2012]) were used to pace the atrium and six electrodes ([Waldo et al., 1996]; [[…] et al., 2003]; [Roukoz and […] et al., 2009]; [Grunnet et al., 2012]; [Zimetbaum, 2012]) were used to measure the electrical activity in the atrium. The AERP was measured as in the Langendorff experiments. Between the AERP recordings, the heart remained unpaced. An intravenous catheter (inside diameter 0.5, outside diameter 0.8 mm, Natsume Seisakusho, Japan) was placed in the right jugular vein alongside the electrophysiology catheter for drug infusion. […] First a period of 20 min baseline recording was conducted with AERP measurements every 5 min ( Figure 1 ). […] The AERP was measured every 5 min during baseline and every 2 min during and after infusion.

The target in data set [6] is T1, hKCa2.2. Details: method as in Simó-Vicens et al., 2017a. The conditions noted are these: hKCa2.2, automated patch clamp; ref Simó-Vicens et al., 2017a; cited from earlier work.
For data set [7], the target named is T2, hKCa2.3. The conditions noted are these: hKCa2.3, automated patch clamp, cited from earlier work.
Data set [8] concerns the target T1, hKCa2.2. Set-up: method as in Simó-Vicens et al., 2017b. The note with it: hKCa2.2, manual patch clamp; ref Simó-Vicens et al., 2017b; cited from earlier work.
The target in data set [9] is T2, hKCa2.3. Set-up: method as in Simó-Vicens et al., 2017b. The note with it: hKCa2.3, manual patch clamp; ref Simó-Vicens et al., 2017b; cited from earlier work.
Data set [10] has as its target T3, hKv11.1. Details: method as in Diness et al., 2017. The conditions noted are these: hKv11.1, automated patch clamp; ref Diness et al., 2017; cited from earlier work.

T3 sequence (Q12809 whole entry): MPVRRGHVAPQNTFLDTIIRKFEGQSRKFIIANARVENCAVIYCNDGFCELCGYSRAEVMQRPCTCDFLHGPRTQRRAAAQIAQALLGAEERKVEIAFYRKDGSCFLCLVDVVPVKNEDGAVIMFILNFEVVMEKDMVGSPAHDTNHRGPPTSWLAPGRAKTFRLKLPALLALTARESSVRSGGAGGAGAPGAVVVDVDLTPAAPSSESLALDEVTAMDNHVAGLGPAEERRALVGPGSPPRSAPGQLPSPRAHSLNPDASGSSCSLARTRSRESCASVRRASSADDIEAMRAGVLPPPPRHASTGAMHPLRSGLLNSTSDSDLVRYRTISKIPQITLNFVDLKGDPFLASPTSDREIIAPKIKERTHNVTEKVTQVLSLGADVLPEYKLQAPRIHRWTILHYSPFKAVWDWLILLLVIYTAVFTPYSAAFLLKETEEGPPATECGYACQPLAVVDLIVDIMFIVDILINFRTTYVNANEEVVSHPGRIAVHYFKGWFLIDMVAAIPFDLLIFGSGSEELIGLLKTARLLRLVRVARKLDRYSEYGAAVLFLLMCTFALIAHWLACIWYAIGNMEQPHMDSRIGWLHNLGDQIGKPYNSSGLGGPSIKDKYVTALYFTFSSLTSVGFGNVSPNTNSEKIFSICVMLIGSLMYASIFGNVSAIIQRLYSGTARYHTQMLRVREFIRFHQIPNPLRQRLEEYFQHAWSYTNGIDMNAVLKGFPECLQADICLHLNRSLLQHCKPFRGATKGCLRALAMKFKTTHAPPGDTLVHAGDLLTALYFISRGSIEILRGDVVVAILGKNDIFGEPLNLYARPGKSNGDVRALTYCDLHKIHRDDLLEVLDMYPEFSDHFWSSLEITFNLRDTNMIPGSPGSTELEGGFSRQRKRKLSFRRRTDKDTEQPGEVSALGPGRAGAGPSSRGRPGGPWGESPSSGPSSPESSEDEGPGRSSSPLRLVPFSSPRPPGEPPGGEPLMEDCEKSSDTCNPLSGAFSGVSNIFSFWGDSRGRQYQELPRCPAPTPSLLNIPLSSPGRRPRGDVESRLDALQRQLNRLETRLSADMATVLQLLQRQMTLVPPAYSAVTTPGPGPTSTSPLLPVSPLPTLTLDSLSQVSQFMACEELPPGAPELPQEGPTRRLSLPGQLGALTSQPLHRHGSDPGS

For the molecule `Cc1nccn1CC1CCc2c(c3ccccc3n2C)C1=O` (stereo not drawn) [Ondansetron], the “Effect on IKCa” value is on record as “failed to inhibit IKCa; also recorded: did not inhibit IKCa” on hKCa2.2 [1] (1 µM, hKCa2.2-expressing HEK cells, 400 nM intracellular calcium, n = 5) and “did not inhibit IKCa” on hKCa2.3 [3] (up to 30 µM, hKCa2.3 current). Further, the IC50 (commonly the concentration that inhibits the measured activity by half) was greater than 1 µM against hKCa2.2 [1] (hKCa2.2, manual patch clamp, present study); greater than 30 µM against hKCa2.2 [2]; greater than 30 µM at hKCa2.3 [3] (hKCa2.3, automated patch clamp, present study, n = 8). In addition, the “Concentration from which IKr is blocked” value at hKv11.1 [4] is no less than 3000 nM. Moreover, the QTcB in data set [5] (3 µM, TMC 269 ± 6 ms) amounted to 294 ± 5 ms. Also, the “Effect on AERP compared to TMC” value in data set [5] (concentrations up to 3µM) is “did not affect AERP significantly”. Moreover, in data set [5] (concentrations up to 3µM), the “Effect on HR compared to TMC” value is “did not significantly affect HR”.
Regarding `CN(CCOc1ccc(NS(C)(=O)=O)cc1)CCc1ccc(NS(C)(=O)=O)cc1` [Dofetilide], the “HR, % of baseline values” in data set [5] (10 nM, TMC 94 ± 4%) is listed as 83 ± 3%; in [5] (30 nM, TMC 91 ± 4%), 80 ± 3%. Further, the QTcB in [5] (10 nM, TMC 271 ± 5 ms) worked out at 306 ± 9 ms; in [5] (30 nM, TMC 269 ± 6 ms), 313 ± 9 ms; in the data set on guinea pigs (after 5 min of infusion, 0.01 mg/kg over 20 min, TMC 280 ± 9 ms), 319 ± 11 ms. The molecule also registered an AERP in data set [5] (30 nM, TMC 64 ± 6 ms) of 80 ± 4 ms. Moreover, the “Effect on AERP” value in the data set with guinea pigs (0.01 mg/kg infused over 20 min) is “No effect on AERP”. The “HR, % of the baseline average” value in the data set with guinea pigs (0.01 mg/kg, minimum, 5 min after end of infusion, TMC 93 ± 2%) came to 82 ± 3%. Besides, the 50% inhibitory concentration (IC50) on hKCa2.2 [6] is 60 µM; at hKCa2.3 [7] (ref Simó-Vicens et al., 2017a) it was 90 µM.
Turning to `CC(=O)Nc1cccc2[nH]c(N[C@H](C)c3cccc(C(F)(F)F)c3)nc12` [AP14145], the AERP in [5] (10 µM, end of wash-in, TMC 61 ± 5 ms) is on record as 77 ± 2 ms; in the data set on guinea pigs (after 6 min of i.v. infusion (4 mg/kg given), TMC 72 ± 2 ms), 97 ± 6 ms. In data set [5] (30 µM, TMC 64 ± 6 ms), the “AERP (maximum)” value was determined as 93 ± 2 ms. For the same molecule, the “AERP (maximum during infusion)” value in the data set on guinea pigs (13.3 mg/kg infused over 20 min, TMC 75 ± 3 ms) is 113 ± 6 ms. In addition, the IC50 at hKCa2.2 [8] is 1.1 µM; on hKCa2.3 [9], 1.1 µM; on hKCa2.3 [7] (ref Diness et al., 2017) it was 1.3 µM; at hKv11.1 [10] it was 71.8 µM.
